pIC50: −log10 of the molar value. “Also recorded” adds a separate entry of the source. Where a name gives a salt, the structure may show the parent alone.
Assays:
3T3L1 cells = test: Lipolysis assay (glycerol release) in differentiated 3T3-L1 cells; type: cell-based; conditions: cells differentiated in presence vs absence of compound
Protocol: 3T3L1 cells were differentiated as described above for 9 days. The lipolysis assay was performed according to the manufactures instructions (Abcam Lipolysis assay kit, ab185433, Abcam). Briefly, after differentiation cells were washed two times with lipolysis assay buffer. Lipolysis was stimulated using 100 nM isoproterenol for 3 h. The amount of glycerol released was measured using colorimetric intensity.

3T3-L1 cells [1] = test: Induction of adipogenic gene mRNAs in differentiating 3T3-L1 cells (RT-qPCR); type: cell-based; conditions: 20 μM, day 3 and 6 of differentiation
Protocol: Total RNA was isolated from tissues (frozen at the time of sampling) using Trizol reagent (Sigma-Aldrich) according to the manufacturer's instructions. RNA concentrations were determined by absorbance at 260 nm, while quality and integrity were evaluated via 260/230 and 260/280 ratios using a NanoDrop spectrophotometer (Thermo Fisher Scientific). RT-real time PCR amplification was carried out using the ImProm-II Reverse Transcription System (A3800; Promega, Madison, Wis., United States of America) with random primers following the manufacturer's protocol. Subsequently, real-time quantitative (q) PCR was performed using primer sequences described in Supplemental Table S1 of Moore CEJ et al., 2016, the content of which is hereby incorporated by reference in its entirety). The comparative CT method was used to measure the amplification of target mRNA levels compared with […] (B2M) mRNA. In FIG. 1A, the relative amount of each transcript was determined using the equation 2^−dCt, where dCt=(Ct target gene-Ct ref gene), and Ct=cycle threshold.
(§1) For induction of 3T3-L1 (fibroblast) cell differentiation, pre-adipocytes were grown to 2 days post-confluence in DMEM supplemented with 10% FBS (day 0) and the medium was changed to DMEM supplemented with 10% FBS, insulin (167 nM), dexamethasone (0.5 μM), isobutylmethylxanthine (IBMX) (0.5 mM) and rosiglitazone (2 μM). After 48 h, the medium was replaced with medium containing DMEM supplemented with 10% (v/v) FBS and 167 nM insulin. On day 4, after inducing differentiation, and thereafter, the cells were cultured in DMEM with 10% FBS. The maintenance medium was changed every 48 h until the cells were utilised for experimentation (9 days from the initiation of differentiation).
In order to study the role of MNK2 in adipocyte differentiation, 3T3-L1 cells were used in a similar manner to that described in Example 1. […]

MNKs = test: eIF4E phosphorylation (P-eIF4E immunoblot) in 3T3-L1 cells as read-out of MNK activity; type: cell-based; conditions: immunoblot
Excerpt: Similar data obtained in three replicate experiments.
The term “MNK inhibitor” as used herein is intended to refer to any compound that reduces the biological activity of MNK1 (including reducing the biological activity of one or both of splice variants MNK1 a and MNK1b) and/or MNK2 (including reducing the biological activity of one or both of splice variants MNK2a and MNK2b), including by reducing the amount of MNK1 and/or MNK2 expressed. For example, the MNK inhibitor may be a small organic molecule (also referred to as a “small molecule” herein), a peptide antagonist, an inhibitory antibody or fragment thereof, an interfering nucleotide molecule, an aptamer or other MNK inhibitor that inhibits the expression or biological activity as would be understood by those skilled in the art. The biological activity of MNK1 and MNK2 can be measured in a variety of ways, for example, by measuring phosphorylation of its substrate eIF4E to P-eIF4E using any suitable method known to those skilled in the art, for example, by performing an immunoblot or ELISA utilising a specific anti-P-eIF4E antibody, for example, the anti-phospho eIF4E (Ser209) antibody distributed by Merck Millipore, Catalogue No. 07-823 (Merck Millipore, Billerica, Mass., United States of America). […] Those skilled in the art will be aware of how to conduct suitable controls when measuring P-eIF4E levels. The MNK1 and/or MNK2 bioactivity can otherwise be measured using a cellular assay that can detect levels of MNK1 and/or MNK2 bioactivity. Antibodies that specifically detect phosphorylated MNK could also be used, for example, anti-P-MNK1 (Phospho-Mnk1 (Thr197/202) Antibody #2111; Cell Signaling Technology Inc, Danvers, Mass., United States of America). Additionally, those skilled in the art will appreciate that the MNK inhibitors should be safe for use for its intended purpose.
Tissues were harvested in RIPA lysis buffer containing 50 mM TrisHCl, pH 7.4, 150 mM NaCl, 1% Triton X-100, 0.1% sodium deoxycholate, 0.1% sodium dodecyl sulfate, 1 mM ethylenediaminetetraaacteic acid (EDTA), 50 mM β-glycerolphosphate, 0.5 mM NaVO3, 0.1% 2-mercaptoethanol and protease inhibitors (Roche). After lysis, insoluble material was removed by centrifugation at 12,000 g for 10 min at 4° C. Protein content was determined by the Bradford protein assay (Bio-Rad). Immunoblotting was performed as described in Liu et al. (2014). Blots were visualised using a LI-COR Odyssey® Quantitative Imaging System. Primary antibodies as indicated in Table 5 were from Cell Signaling Technologies, except for anti-P-eIF4E (Merck Millipore). Secondary antibodies were obtained from Thermo Fisher Scientific Inc. (Waltham, Mass., United States of America) and used at 1:20,000 dilution.
MNKs are the only kinases known to phosphorylate eIF4E, and accordingly, the phosphorylation of eIF4E (P-eIF4E) provides a direct read-out of MNK biological activity.
Since eIF4E is only phosphorylated by the MNKs, its phosphorylation status is a reliable read-out of intracellular MNK activity. […] MNK2 is the main MNK in 3T3-L1 cells and in adipose tissue (Moore et al., 2016). In additional studies, tests were conducted to assess the effect of the MNK-I2 inhibitor on the induction of differentiation markers in 3T3-L1 cells.

3T3-L1 cells [2] = test: Lipid accumulation in differentiating 3T3-L1 cells (Oil Red O / triglyceride); type: cell-based; conditions: 20 μM, 3T3-L1 cells differentiated 9 days
Protocol: as §1
Assessment of intracellular triglyceride levels was performed using Oil Red O staining as described by others (Smith et al., 1988). Briefly, on day 9 of differentiation of the 3T3-L1 cells were fixed in 10% formalin for 1 hour. […] For quantification, cells were washed extensively with water to remove unbound dye, and 1 ml isopropanol was added to the stained 6-well culture plate. After 5 min, the absorbance of the oil red extract at 510 nm was measured, with an increased absorbance indicative of an increased lipid level within the cells.
The amount of tissue-released triglyceride (TAG) was measured using a Triglyceride Quantification Kit (Abcam, ab65336).

other protein kinases = conditions: cited from earlier work
MNK1 = MNK1 (Homo sapiens, UniProt Q9BUB5); conditions: cited from earlier work
MNK1, sequence (Q9BUB5 whole entry, species assumed): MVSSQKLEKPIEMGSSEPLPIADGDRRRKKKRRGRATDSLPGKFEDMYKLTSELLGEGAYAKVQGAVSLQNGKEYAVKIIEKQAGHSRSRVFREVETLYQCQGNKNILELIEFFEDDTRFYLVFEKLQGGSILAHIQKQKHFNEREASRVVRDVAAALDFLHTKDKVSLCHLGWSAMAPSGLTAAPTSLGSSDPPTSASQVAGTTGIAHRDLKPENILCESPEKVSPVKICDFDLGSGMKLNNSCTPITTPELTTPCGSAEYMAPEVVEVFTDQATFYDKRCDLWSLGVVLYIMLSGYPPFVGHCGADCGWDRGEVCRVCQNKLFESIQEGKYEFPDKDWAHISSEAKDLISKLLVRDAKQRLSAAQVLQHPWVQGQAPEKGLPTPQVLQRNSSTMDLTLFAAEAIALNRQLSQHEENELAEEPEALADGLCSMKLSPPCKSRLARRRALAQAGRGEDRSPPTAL

MNK2 = MNK2 (Homo sapiens, UniProt Q9HBH9); conditions: cited from earlier work
MNK2, sequence (Q9HBH9 whole entry, species assumed): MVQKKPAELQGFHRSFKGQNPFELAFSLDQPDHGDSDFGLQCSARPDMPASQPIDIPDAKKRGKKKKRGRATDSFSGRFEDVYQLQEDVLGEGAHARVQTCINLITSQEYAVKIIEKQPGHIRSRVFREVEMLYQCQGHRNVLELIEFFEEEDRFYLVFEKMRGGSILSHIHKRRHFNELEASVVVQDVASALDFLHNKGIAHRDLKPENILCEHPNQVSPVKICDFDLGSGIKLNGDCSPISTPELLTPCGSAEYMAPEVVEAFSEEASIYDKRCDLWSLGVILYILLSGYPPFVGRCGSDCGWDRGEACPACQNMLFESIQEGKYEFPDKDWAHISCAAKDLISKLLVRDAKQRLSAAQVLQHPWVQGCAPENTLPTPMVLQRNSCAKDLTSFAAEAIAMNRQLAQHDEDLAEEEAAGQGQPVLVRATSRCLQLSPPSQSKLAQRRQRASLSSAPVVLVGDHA

SMILES	glycerol released in lipolysis assay (3T3L1 cells)	induction of adipogenic genes (PPARγ, C/EBPα, SREBP1c, GLUT4, CD36 mRNA) (3T3-L1 cells [1])	inhibition of P-eIF4E / MNK activity (MNKs)	accumulation of lipid (Oil Red O) (3T3-L1 cells [2])	inhibition of other protein kinases (other protein kinases)	pIC50 (MNK1)	pIC50 (MNK2)
Nc1ncnc2[nH]nc(Nc3ccc(F)cc3)c12 [CGP57380, N3-(4-Fluorophenyl)-1H-pyrazolo-[3,4-d]pyrimidine-3,4-diamine]	less glycerol was released	substantially blocked the induction of all of these genes; also recorded: impairs the induction of key transcription factors; also recorded: inhibits the expression of the glucose and lipid transporters GLUT4 and CD36; also recorded: inhibited expression of a number of genes required for adipocyte differentiation	almost completely blocking MNK activity	inhibited the accumulation of lipid; also recorded: markedly inhibited	inhibit other protein kinases in addition to the MNKs	–	–
c1cc(-c2cc(C3CCNCC3)[nH]n2)ccn1 [ETP 45835 dihydrochloride, 4-[5-(4-Piperidinyl)-1H-pyrazol-3-yl]pyridine dihydrochloride]	–	–	–	–	–	6.24	6.19
